Reference: patent publication US8889724B2, “Tetrazole compounds for reducing uric acid” (Wellstat Therapeutics Corporation, priority 2008, dated 2014)
Where “and” joins values, the source holds several entries; their conditions need not be identical. Identical values can stand only once. Like-named read-outs stand apart in the source and are kept apart here.

Assay: Mouse oral single-dose pharmacokinetic study with Compound EB
Format: in vivo
Conditions: 100 mg/kg single oral gavage
Description: Mouse Oral Single-Dose Pharmacokinetic Study with Compound EB
Determination of the Plasma profile of Compound EB following single oral gavage administration to male mice:
Test compounds were suspended in 1% HPMC using a tissue homogenizer to minimize particles and maximize uniformity of the suspension and stored at 4° C. The formulations was thoroughly mixed just prior to administration. A dose of 100 mg/kg of Compound EB or vehicle (1% HPMC) was administered to male mice by single oral gavage. Mice were placed in urine collectors after dosing for 5 hours, and the total urine output for 5 hours was collected. Samples were frozen at −80° C. until analyzed using LC/MS-MS.
At 0, 0.5, 1, 2, 4, 6, 8 and 24 hours post-dose time points, blood samples (0.4 mL) were collected by orbital sinus bleeds in K3EDTA tubes. The blood samples were centrifuged within 30 minutes of collection under refrigeration (2-8° C.) for 7 minutes at 6000 rpm. Following centrifugation, the plasma were harvested into a single tube for each animal at each time point and immediately frozen at −80° C. until analyzed using LC/MS-MS. Data was subjected to pharmacokinetic analyses using WinNonlin Standard (v2.1, Pharsight Corporation) and Microsoft EXCEL.
1. Mice received single oral gavage of Compound EB, 100 mg/kg, and plasma was collected at certain times.
2. Plasma was stored at −80° C. until the day of analysis.
3. Samples were thawed on 37° C. bath for 5 min and vortexed at top speed for 10 sec.
4. Mouse plasma, 0.1 mL was mixed with 0.2 mL Acetonitrile, vortexed 1 min, spun down 14000 rpm, 17000 g, at 4° C., for 25 min.
5. Supernatants were filtered through 0.45 micron, 4 mm, PTFE membrane syringe filter (Phenomenex # AF0-3102-52), and 13 microL were injected and resolved on Luna 3 micron, 100 A pore, C8(2), 150×3 mm, reverse phase column (Phenomenex#00F-4248-YO, SN#259151-7) in 50 min linear gradient from 40% to 69% of (0.1% Formic Acid, 89.9% Acetonitrile, 10% Methanol) at 0.25 mL/min, 100 bar, 37° C. column temperature, method 406975M1, Sequence 1029-08A, Agilent 1100 LC-MS.
All samples were run in duplicate, 210 nm and 230 nm Absorbances, Negative and Positive ionization spectrograms recorded.
Step 1. Plasma from “Vehicle” animals (pooled), 0.095 mL, was mixed with 0.005 mL 20× stock of Compound EB in Methanol to make 500 microM, 250 microM, 125 microM, . . . , concentrations of Compound EB in plasma.
For example: 95 microL plasma+5 microL of 10 mM Compound EB in methanol=0.1 mL plasma with 500 microM Compound EB.
Step 2. Samples from step 1 were vortexed for 10 sec at top speed.
Step 3. 0.2 mL of acetonitrile was added to all samples from Step 2, and all vials were vortexed at top speed for 1 min.
Step 4. All samples from step 3 were spun down 14000 rpm, 17000 g, at 4° C., for 25 min.
Step 5. Supernatants were filtered through 0.45 micron, 4 mm, PTFE membrane syringe filter (Phenomenex # AF0-3102-52), 13 microL were injected and resolved on Luna 3 micron, 100 A pore, C8(2), 150×3 mm, reverse phase column

Cc1cccc(C)c1COc1cccc(-c2nnn[nH]2)c1 [Compound EB, 5-(3-(2,6-Dimethylbenzyloxy)phenyl)-1H-tetrazole]
Detection in mouse plasma (in words) (LC-MS): readily detected
Compound EB concentr. in plasma, individual animals (male mice, bleed time 0 HR): 0 µg/mL
Compound EB concentr. in plasma, individual animals (male mice, bleed time 0.5 HR): 207.5 µg/mL and 134.2 µg/mL
Compound EB concentr. in plasma, individual animals (male mice, bleed time 1 HR): 139.7 µg/mL and 157.6 µg/mL
Compound EB concentr. in plasma, individual animals (male mice, bleed time 2 HR): 139.9 µg/mL and 187.6 µg/mL and 82.4 µg/mL
Compound EB concentr. in plasma, individual animals (male mice, bleed time 4 HR): 74.9 µg/mL and 92.1 µg/mL and 39.6 µg/mL
Compound EB concentr. in plasma, individual animals (male mice, bleed time 6 HR): 79.9 µg/mL and 48 µg/mL
Compound EB concentr. in plasma, individual animals (male mice, bleed time 8 HR): 18.2 µg/mL and 10.7 µg/mL and 0 µg/mL
Compound EB concentr. in plasma, individual animals (male mice, bleed time 24 HR): 0 µg/mL
AUC0-24 (male mice, plasma): AUC0-24: 796 μg/mL
concentration at 0 h (male, mouse, plasma, po, 100 mg/kg, male mice, 0 hr, read-out: Compound EB concentration in plasma, average): 0 ng/mL
concentration at 0.5 h (male, mouse, plasma, po, 100 mg/kg, male mice, 0.5 hr, read-out: Compound EB concentration in plasma, average): 183 µg/mL
concentration at 1 h (male, mouse, plasma, po, 100 mg/kg, male mice, 1 hr, read-out: Compound EB concentration in plasma, average): 169 µg/mL
concentration at 2 h (male, mouse, plasma, po, 100 mg/kg, male mice, 2 hr): 137 µg/mL
concentration at 4 h (male, mouse, plasma, po, 100 mg/kg, male mice, 4 hr): 69 µg/mL
concentration at 6 h (male, mouse, plasma, po, 100 mg/kg, male mice, 6 hr, read-out: Compound EB concentration in plasma, average): 62 µg/mL
concentration at 8 h (male, mouse, plasma, po, 100 mg/kg, male mice, 8 hr): 10 µg/mL
concentration at 24 h (male, mouse, plasma, po, 100 mg/kg, male mice, 24 hr, read-out: Compound EB concentration in plasma, average): 3 µg/mL
concentration at 0 h (male, mouse, plasma, po, 100 mg/kg, male mice, bleed time 0 HR, read-out: Compound EB concentr. in plasma, individual animals): 0 ng/mL
concentration at 0.5 h (male, mouse, plasma, po, 100 mg/kg, male mice, bleed time 0.5 HR, read-out: Compound EB concentr. in plasma, individual animals): 206 µg/mL
concentration at 1 h (male, mouse, plasma, po, 100 mg/kg, male mice, bleed time 1 HR, read-out: Compound EB concentr. in plasma, individual animals): 210 µg/mL
concentration at 6 h (male, mouse, plasma, po, 100 mg/kg, male mice, bleed time 6 HR, read-out: Compound EB concentr. in plasma, individual animals): 58.7 µg/mL
concentration at 24 h (male, mouse, plasma, po, 100 mg/kg, male mice, bleed time 24 HR, read-out: Compound EB concentr. in plasma, individual animals): 0 µg/mL
Cmax (mouse, male mice, plasma): 210 µg/mL
